In ChEMBL document CHEMBL1134825, “Semi-synthesis of 2-deoxo- and 3-epi-paraherquamide A” (Bioorg Med Chem Lett, 2001):
The source made the active and inactive calls. The calls are words filed in the database; no cut-off is given here.

Legend:
[1] = Lethal dose in mice was determined; type: toxicity, organism-based; settings: mouse, in vivo
[2] = Lethal dose in dog was determined; type: toxicity, organism-based, Canis lupus familiaris; settings: in vivo
[3] = test system: helminth; test: Compound was tested for antihelminthic activity; No activity; type: functional

SMILES | LD50 [1] [mg/kg] | LD50 [2] [mg/kg] | Activity [3]
CN1C(=O)[C@]23C[C@@H]4C(C)(C)[C@@]5(C[C@@]41CN2CC[C@@]3(C)O)C(=O)Nc1c5ccc2c1OC=CC(C)(C)O2 [Paraherquamide A] | < 15 | 0.5 | 
CN1C(=O)[C@]23CC4C1(CN2CC[C@@]3(C)O)CC1(C(=O)Nc2c1ccc1c2OC=CC(C)(C)O1)C4(C)C (stereo partly drawn) |  |  | inactive
